Experimental data reported in patent US20190307820A1, “COMPOSITIONS AND METHODS OF USING STAT1/3 INHIBITORS WITH ONCOLYTIC HERPES VIRUS” (priority 2016, published 2019).

Columns and labels:
[1] = test system: ICP27; test: Western blot of ICP27 in HSV-1 infected microglia cells; type: cell-based; details: for ICP27 expression: 1 μM C16, 24 hours
Method: (§1) FIG. 12B depicts an electrophoresis gel showing total proteins that were harvested from G2O7 infected microglia cells at 24 hours post treatment with either 1 μM of C16, 1 μM of Bay11, or 100 μM of AG. ICP27, ICP4, and […] expression was measured by western blot assay. U87 and MG co-culture were pretreated with 0.5 μM of C16 for 1 hour.
as §1, with “12C” for “12B”, “HrR3 or KOS” for “G2O7”, “post-treatment” for “post treatment”, “with” for “with either”, “PKR-i (C16).” for “C16, 1 μM of Bay11, or 100 μM of AG.”
Total protein was harvested with sample buffer (125 mM Tris-HCL, 50% Glycerol, […] and 5% 2-mercaptoethanol) and boiled for 5 minutes. Protein samples were subjected to SDS-PAGE (8% gel), transferred to nitrocellulose membranes and blocked in 5% nonfat milk (Bio Rad) in TBS-Tween 20 (TBS-T) for 1 hour at room temperature. The membranes were then incubated with primary antibody against β-actin at 1:1000 (Cell Signaling, Danvers, Mass.) or anti-STAT1 antibody at 1:1000 (Cell Signaling, Danvers, Mass.) or anti-STAT3 antibody at 1:1000 (Cell Signaling, Danvers, Mass.) or anti-phospho STAT1 antibody (Tyr701) at 1:1000 (Cell Signaling, Danvers, Mass.) or anti-phospho STAT3 antibody (Tyr705) at 1:1500 (Cell Signaling, Danvers, Mass.) or anti-phosphor-eIF2a antibody (ser51) at 1:1000 (Cell Signaling, Danvers, Mass.) or anti-ICP27 antibody at 1:1000 (Abcam, Cambridge, Mass.) or anti-ICP4 antibody at 1:750 (Abcam, Cambridge, Mass.) for overnight at 4° C. The membranes were washed the next day with TBS-T three times and incubated with corresponding secondary antibody at 1:3000 (Perkim Elmer, Boston, Mass.), for 1 hour at room temperature. Membranes were washed with TBS-T three times before visualization using ECL reagent (Perkim Elmer, Boston, Mass.) and VersaDoc imaging system (Bio-Rad). Band density was measured by using ImageJ software (NIH, Bethesda, Md.). […]

[2] = molecular target: T1, STAT1 (Homo sapiens, UniProt P42224); test: Western blot of STAT1 phosphorylation in U87 cells; type: cell-based
T1 construct: Extracted protein was then subjected to western blot assay; endogenous in cells; host or cells: U87 cells, with or without HrR3 infection
T1 sequence (P42224 1-750): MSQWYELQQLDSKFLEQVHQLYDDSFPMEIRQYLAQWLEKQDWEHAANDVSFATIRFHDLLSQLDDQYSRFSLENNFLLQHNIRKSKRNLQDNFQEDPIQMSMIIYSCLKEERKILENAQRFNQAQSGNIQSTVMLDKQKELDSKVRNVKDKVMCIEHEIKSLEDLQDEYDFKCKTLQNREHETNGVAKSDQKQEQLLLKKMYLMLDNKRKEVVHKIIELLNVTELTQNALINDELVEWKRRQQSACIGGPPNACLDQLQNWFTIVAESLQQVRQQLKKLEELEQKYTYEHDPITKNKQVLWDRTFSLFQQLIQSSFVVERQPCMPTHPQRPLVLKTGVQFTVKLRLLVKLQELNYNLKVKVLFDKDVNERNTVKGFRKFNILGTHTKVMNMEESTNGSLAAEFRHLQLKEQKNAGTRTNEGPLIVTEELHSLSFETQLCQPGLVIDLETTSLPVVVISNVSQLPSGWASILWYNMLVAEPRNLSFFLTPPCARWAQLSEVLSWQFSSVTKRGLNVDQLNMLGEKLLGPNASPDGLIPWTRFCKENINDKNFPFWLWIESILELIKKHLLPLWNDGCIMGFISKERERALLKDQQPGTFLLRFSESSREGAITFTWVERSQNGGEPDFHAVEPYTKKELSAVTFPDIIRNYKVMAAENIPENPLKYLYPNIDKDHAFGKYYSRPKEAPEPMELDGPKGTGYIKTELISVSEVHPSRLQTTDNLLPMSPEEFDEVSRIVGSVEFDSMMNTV
Method: (FIG. 5A) U87 cells were treated with HrR3 at a MOI of 5 and indicated concentration of nifuroxazide for 6 hours. Extracted protein was then subjected to western blot assay. (FIG. 5B) U87 cells were treated with indicated concentration of HrR3 or nifuroxazide or stattic or in combination for 72 hours. Cytotoxicity was measured by MTT assay. (FIG. 5C) Relative mRNA level (2^−ΔΔCT) is shown. Data are presented as mean SD, *P<0.05 vs corresponding vehicle treatment.
FIG. 19A and FIG. 19B, U87 cells (A) or CT26 cells (B) were treated with the indicated concentrations of HrR3 or NF or a combination. Total protein was extracted after 24 hours and subjected to western blot analysis. Band intensity was measured using Image J software and normalized to β-actin. Samples were run in triplicate and data are as means±S.E. Statistically significant differences are indicated by P<0.05 or P<0.01. FIG. 19C, Mice subcutaneously bearing U87 tumors were intratumorally injected with a single dose of HrR3 virus (1×10^6 PFU) and/or peritoneally injected doses of NF as indicated. Tumors were harvested on day 10 post treatment and total protein was extracted from a mouse of each treatment group and subjected to western blot analysis in triplicate. Results are reported as means±S.E.
Expression of key regulator of the Type1 interferon signaling, STAT1 and STAT3, was determined in nifuroxazide treated oHSV-1 infected U87 cells.
NF is a known inhibitor of STAT1 and STAT3. To evaluate the underlying molecular mechanism of the anti-tumour effect of the NF and oHSV-1 combination, the STAT1 and STAT3 status in U87 cells (FIG. 19A) and CT26 cells (FIG. 19B) cells was determined after an overnight treatment with NF and oncolytic viruses.

In the case of `O=C1Nc2ccc3ncsc3c2/C1=C/c1c[nH]cn1` [C16, 6,8-Dihydro-8-(1H-imidazol-5-ylmethylene)-7H-pyrrolo[2,3-g]benzothiazol-7-one], the “upregulated expression of ICP27” value ([1]; G207 infected, 1 μM C16, 1 μM Bay11 or 100 μM AG, 24 hours) is reported as 25 fold, the ICP27 expression ([1]; HrR3 infected BV2 cells) is reported as “upregulated ICP27 expression” and the ICP27 expression ([1]; KOS infected BV2 cells) is reported as “upregulated ICP27 expression”.
For `O=C(N/N=C/c1ccc([N+](=O)[O-])o1)c1ccc(O)cc1` [nifuroxazide, Benzoic acid, 4-hydroxy-, [(5-nitro-2-furanyl)metylene]hydrazide], the “HrR3 induced upregulation of STAT1 phosphorylation” value ([2]; 24 hours) was “effectively suppressed”, the STAT1 phosphorylation ([2]; HrR3 MOI of 5, 6 hours) was “dose dependent STAT1 and STAT3 phosphorylation reduction” and the “phosphorylation of STAT1” value ([2]; NF alone, 24 hours) was “dose dependent inhibition”.
